Assay results reported in patent publication US8575193B2, “N-substituted tetrahydroisoquinoline/isoindoline hydroxamic acid compounds” (4SC AG, priority 2008, dated 2013).
Counter-ions that a name gives are not always drawn.

Assays:
rHDAC1 = molecular target: T1, rHDAC1 (Homo sapiens, UniProt Q13547); experiment: rHDAC1 enzymatic assay (recombinant FLAG-HDAC1); format: biochemical; conditions: FLAG-HDAC1 from HEK293; 6 μM Ac-NH-GGK(Ac)-AMC, 3 h at 30° C.; read-out: rHDAC1 [pIC50] (converted)
T1 construct: FLAG; made in house
T1 sequence (Q13547 whole entry): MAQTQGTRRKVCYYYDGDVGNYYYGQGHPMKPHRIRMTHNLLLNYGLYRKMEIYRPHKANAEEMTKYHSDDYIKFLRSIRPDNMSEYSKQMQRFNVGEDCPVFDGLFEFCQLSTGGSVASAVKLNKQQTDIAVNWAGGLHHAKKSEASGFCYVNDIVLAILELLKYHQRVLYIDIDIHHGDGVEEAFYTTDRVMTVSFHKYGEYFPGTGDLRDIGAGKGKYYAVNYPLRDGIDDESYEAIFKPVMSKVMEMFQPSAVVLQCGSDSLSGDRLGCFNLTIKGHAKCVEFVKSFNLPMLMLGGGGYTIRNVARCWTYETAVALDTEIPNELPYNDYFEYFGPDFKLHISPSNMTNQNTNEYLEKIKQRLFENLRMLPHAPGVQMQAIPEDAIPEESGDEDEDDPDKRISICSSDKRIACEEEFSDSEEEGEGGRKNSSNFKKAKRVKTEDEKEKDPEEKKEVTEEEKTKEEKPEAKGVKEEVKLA
Excerpt: (§1) Human HDAC1 and HDAC6 fused with the FLAG epitope are stably expressed in HEK293 cells while human HDAC3 and HDAC8 fused with the FLAG epitope are overexpressed in baculo-virus infected insect (Sf21) cells. To ensure stability of FLAG-HDAC3 the SMRT protein is co-expressed in the corresponding insect cells. […] FLAG-HDAC3 and FLAG-HDAC8 are also purified by M2-agarose affinity chromatography after mass cultivation of the insect cells and cell lysis.
(§2) The HDAC enzyme activity assay is done as described by Wegener et al. (Chem. & Biol. 10, 61-68, 2003). Briefly 40 μl of a 1:100 dilution (=0.4 μl) nuclear HeLa extract (mixture of class I and II HDACs), 29 μl enzyme buffer (15 mM Tris HCl pH 8.1, 0.25 mM EDTA, 250 mM NaCl, 10% v:v glycerol) and 1 μl test compound are added to a well of a 96 well microtiter plate and reaction started by addition of 3 μl substrate (Ac-NH-GGK(Ac)-AMC; final concentration 25 μM and final volume […]). […] After incubation at room temperature for further 40 min, fluorescence is measured using a Wallac Victor 1420 multilabel counter (Ex 355 nm, Em 460 nm) for quantification of AMC (7-amino-4-methylcoumarin) generated by trypsine cleavage of the deacetylated peptide. […] The corresponding pIC50 values of the compounds for HDAC inhibitory activity are determined from the concentration-effect curves by means of non-linear regression (Graphpad Prism software).
(§3) The HDAC1, HDAC3 and HDAC6 enzymatic assays are done with slight modifications with recombinant FLAG-HDAC1 and FLAG-HDAC6 proteins isolated from HEK293 cell lysates or recombinant FLAG-HDAC3 isolated from insect cells, respectively. The HDAC8 enzymatic assay using recombinant FLAG-HDAC8 isolated from insect cells is done with a different substrate. About 4.5 ng/well FLAG-HDAC1 and 3.1 ng/well FLAG-HDAC6 (dependent on batches and specific activity) are incubated with 6 μM or 10 μM Ac-NH-GGK(Ac)-AMC substrate, respectively, for 3 h at 30° C. About 1.7 ng/well FLAG-HDAC3 is incubated with 6 μM Ac-NH-GGK(Ac)-AMC substrate for 2 h at 30° C., while approximately 130 ng/well FLAG-HDAC8 is incubated with 50 μM Ac-RHK(Ac)K(Ac)-AMC substrate for 3 h at 30° C. Termination of the reaction and all further steps are done as described for HeLa cell nuclear extracts as a source for HDAC enzymatic activity. The corresponding pIC50 values of the compounds for HDAC1, HDAC3, HDAC6 and HDAC8 inhibitory activity are determined from the concentration-effect curves by means of non-linear regression.

rHDAC8 = molecular target: T2, rHDAC8 (Homo sapiens, UniProt Q9BY41); experiment: rHDAC8 enzymatic assay (recombinant FLAG-HDAC8); format: biochemical; conditions: FLAG-HDAC8 from insect cells; 50 μM Ac-RHK(Ac)K(Ac)-AMC, 3 h at 30° C.; read-out: rHDAC8 [pIC50] (converted)
T2 construct: FLAG; made in house; host or cells: baculovirus-infected Sf21 insect cells
T2 sequence (Q9BY41 1-377): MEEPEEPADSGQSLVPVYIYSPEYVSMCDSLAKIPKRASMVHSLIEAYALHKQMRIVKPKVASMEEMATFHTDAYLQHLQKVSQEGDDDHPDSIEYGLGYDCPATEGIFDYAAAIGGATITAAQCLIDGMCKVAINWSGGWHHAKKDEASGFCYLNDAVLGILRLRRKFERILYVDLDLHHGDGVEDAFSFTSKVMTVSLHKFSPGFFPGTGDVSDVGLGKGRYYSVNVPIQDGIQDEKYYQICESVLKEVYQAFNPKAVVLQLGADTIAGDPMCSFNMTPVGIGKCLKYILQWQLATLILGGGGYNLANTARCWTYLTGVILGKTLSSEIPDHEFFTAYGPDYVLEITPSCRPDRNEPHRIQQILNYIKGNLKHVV
Excerpt: as §1, §2, §3

[1] = Cellular cytotoxicity assay (Alamar Blue/Resazurin), A549; format: cell-based; conditions: human, A549 cells; A549, 72 hours incubation, Resazurin; read-out: A549 Cytotoxicity [pIC50] (converted)
Description: (§4) The anti-proliferative activity of the compounds as described herein, is evaluated with various solid and hematological cancer cell lines using the Alamar Blue (Resazurin) cell viability assay (O'Brien et al, Eur J Biochem 267, 5421-5426, 2000). Resazurin is reduced to the fluorescent resorufin by cellular dehydrogenase activity, correlating with viable, proliferating cells. Test compounds are dissolved as 20 mM solutions in dimethylsulfoxide (DMSO) and subsequently diluted in semi-logarithmic steps. The cancer cell lines are seeded into 96 well flat bottom plates at respective cell densities in a volume of 200 μl per well to allow continuous proliferation during the experiment. 24 hours after seeding 1 μl each of the compound dilutions is added into each well of the 96 well plate. Wells containing untreated control cells are filled with 200 μl DMEM medium containing 0.5% v:v DMSO. The cells are then incubated with the substances for 72 hours at 37° C. in a humidified atmosphere containing 5% carbon dioxide. To determine the viability of the cells, 20 μl of a Resazurin solution (Sigma; 90 mg/l) are added. After 4 hours incubation at 37° C. the fluorescence is measured at an extinction of 544 nm and an emission of 590 nm. For the calculation of the cell viability the emission value from untreated cells is set as 100% viability and the emission rates of treated cells are set in relation to the values of untreated cells. Viabilities are expressed as % values. The corresponding pIC50 values of the compounds for cytotoxic activity are determined from the concentration-effect curves by means of non-linear regression.

[2] = Cellular cytotoxicity assay (Alamar Blue/Resazurin), RKOp21; format: cell-based; conditions: human, RKOp21 cells; RKOp21, 72 hours incubation, Resazurin; read-out: RKOp21 Cytotoxicity [pIC50] (converted)
Description: as §4

IC50 (rHDAC1) [µM] | IC50 (rHDAC8) [µM] | SMILES | IC50 at 72 h [1] [µM] | IC50 at 72 h [2] [µM]
10 to 100 | 1 to 10 | CC(=O)N1CCc2cc(C(=O)NO)ccc2C1 [Example 12, 2-Acetyl-N-hydroxy-1,2,3,4-tetrahydroisoquinoline-6-carboxamide] | > 100 | –
0.1 to 10 | 0.01 to 1 | O=C(NO)c1ccc2c(c1)CN(C(=O)NCCc1ccccc1)CC2 [Example 22, N7-Hydroxy-N2-(2-phenylethyl)-3,4-dihydroisoquinoline-2,7(1H)-dicarboxamide] | 1 to 100 | –
10 to 100 | 1 to 10 | Cc1nccn1CC(=O)N1CCc2cc(C(=O)NO)ccc2C1 [Example 10, N-Hydroxy-2-[(2-methyl-1H-imidazol-1-yl)acetyl]-1,2,3,4-tetrahydroisoquinoline-6-carboxamide hydrochloride] | > 100 | –
10 to 100 | 1 to 10 | O=C(NO)c1ccc2c(c1)CCN(C(=O)C1CCOC1)C2 (stereo not shown) [Example 13, N-Hydroxy-2-(tetrahydrofuran-3-ylcarbonyl)-1,2,3,4-tetrahydroisoquinoline-6-carboxamide] | > 100 | > 100
10 to 100 | 1 to 10 | O=C(NO)c1ccc2c(c1)CCN(C(=O)Cc1cccnc1)C2 [Example 8, N-Hydroxy-2-(pyridin-3-ylacetyl)-1,2,3,4-tetrahydroisoquinoline-6-carboxamide hydrochloride] | > 100 | > 100
0.1 to 10 | 0.01 to 1 | O=C(NO)c1ccc2c(c1)CN(C(=O)Cc1cccnc1)CC2 [Example 19, N-Hydroxy-2-(pyridin-3-ylacetyl)-1,2,3,4-tetrahydroisoquinoline-7-carboxamide hydrochloride] | > 100 | –
10 to 100 | 1 to 10 | COCCCOC(=O)N1CCc2cc(C(=O)NO)ccc2C1 [Example 6, 3-Methoxypropyl-6-(hydroxycarbamoyl)-3,4-dihydroisoquinoline-2(1H)-carboxylate] | > 100 | > 100
0.1 to 10 | 1 to 10 | CN(C)CCCC(=O)N1CCc2cc(C(=O)NO)ccc2C1 [Example 9, 2-[4-(Dimethylamino)butanoyl]-N-hydroxy-1,2,3,4-tetrahydroisoquinoline-6-carboxamide hydrochloride] | 1 to 100 | > 100
0.1 to 10 | 1 to 10 | COCCCNC(=O)N1CCc2cc(C(=O)NO)ccc2C1 [Example 5, N6-Hydroxy-N2-(3-methoxypropyl)-3,4-dihydroisoquinoline-2,6(1H)-dicarboxamide] | > 100 | > 100
0.1 to 10 | 1 to 10 | O=C(NO)c1ccc2c(c1)CCN(C(=O)Cc1c[nH]c3ccccc13)C2 [Example 1, N-Hydroxy-2-(indol-3-ylacetyl)-1,2,3,4-tetrahydroisoquinoline-6-carboxamide hydrochloride] | 1 to 100 | 1 to 100
0.1 to 10 | 1 to 10 | CNC(=O)N1CCc2cc(C(=O)NO)ccc2C1 [Example 4, N6-Hydroxy-N2-methyl-3,4-dihydroisoquinoline-2,6(1H)-dicarboxamide] | > 100 | > 100
0.1 to 10 | 0.01 to 1 | O=C(NO)c1ccc2c(c1)CN(C(=O)C1CCOC1)CC2 (stereo not shown) [Example 20, N-Hydroxy-2-(tetrahydrofuran-3-ylcarbonyl)-1,2,3,4-tetrahydroisoquinoline-7-carboxamide] | > 100 | > 100
10 to 100 | 1 to 10 | COCCOCC(=O)N1CCc2cc(C(=O)NO)ccc2C1 [Example 11, N-Hydroxy-2-[(2-methoxyethoxy)acetyl]-1,2,3,4-tetrahydroisoquinoline-6-carboxamide] | > 100 | –
10 to 100 | 1 to 10 | O=C(NO)c1ccc2c(c1)CCN(C(=O)CCc1cccnc1)C2 [Example 7, N-Hydroxy-2-(3-pyridin-3-ylpropanoyl)-1,2,3,4-tetrahydroisoquinoline-6-carboxamide hydrochloride] | > 100 | –
0.1 to 10 | 1 to 10 | O=C(NO)c1ccc2c(c1)CCN(C(=O)C1CCC1)C2 [Example 3, 2-(Cyclobutylcarbonyl)-N-hydroxy-1,2,3,4-tetrahydroisoquinoline-6-carboxamide] | > 100 | > 100
0.1 to 10 | 0.01 to 1 | CC#CC(=O)N1CCc2ccc(C(=O)NO)cc2C1 [Example 17, 2-But-2-ynoyl-N-hydroxy-1,2,3,4-tetrahydroisoquinoline-7-carboxamide] | > 100 | –
0.1 to 10 | 0.01 to 1 | O=C(NO)c1ccc2c(c1)CN(C(=O)Cc1ccccn1)CC2 [Example 21, N-Hydroxy-2-(pyridin-2-ylacetyl)-1,2,3,4-tetrahydroisoquinoline-7-carboxamide hydrochloride] | > 100 | –
0.1 to 10 | 0.01 to 1 | COc1ccc2[nH]c(C(=O)N3CCc4ccc(C(=O)NO)cc4C3)cc2c1 [Example 24, N-Hydroxy-2-[(5-methoxy-1H-indol-2-yl)carbonyl]-1,2,3,4-tetrahydroisoquinoline-7-carboxamide] | 1 to 100 | 1 to 100
0.1 to 10 | 0.01 to 1 | O=C(NO)c1ccc2c(c1)CN(C(=O)Cc1c[nH]c3ccccc13)CC2 [Example 18, N-Hydroxy-2-(1H-indol-3-ylacetyl)-1,2,3,4-tetrahydroisoquinoline-7-carboxamide] | 1 to 100 | –
0.1 to 10 | 0.01 to 1 | Cc1ccc(C(=O)N2CCc3ccc(C(=O)NO)cc3C2)cc1 [Example 23, N-Hydroxy-2-(4-methylbenzoyl)-1,2,3,4-tetrahydroisoquinoline-7-carboxamide] | 1 to 100 | –
